Reference: article PMC10391911, “Differential effects of two phosphodiesterase 4 inhibitors against lipopolysaccharide-induced neuroinflammation in mice” (BMC Neuroscience, 2023)
Read-outs that look alike come from different tables or passages of the source.

Assays:
BV-2 cells = assay type: cell-based, murine; details: 24 h exposure, tested up to 100 µM
Experimental: Cell viability was assessed using the WST-8 assay with Cyto X reagent (LPS Solution, Daejeon, Korea). BV-2 microglial cells were seeded at a density of 5 × 10^5 cells/mL in 96-well plates. […] Finally, Cyto X solution was loaded in each well and incubated for 20 min.

[1] = Brain disposition in mice
Experimental: Residual blood in the brain was removed from circulation via cardiac perfusion with saline solution.
For both plasma and brain samples, 30 µL each sample was vortexed with 270 µL acetonitrile containing disopyramide as the internal standard for protein precipitation.

PDE4D7 = tested on: PDE4D7; parameters: method as in PMID 33363155; details: against PDE4D7; cited from earlier work
PDE4D3 = tested on: PDE4D3; parameters: method as in PMID 33363155; details: against PDE4D3; cited from earlier work
brain cAMP levels = tested on: brain cAMP levels; parameters: method as in PMID 28772081, PMID 33363155; details: cited from earlier work
[2] = tested on: TNF-α, IL-1β, and IL-6 levels in plasma and brain; assay: In vivo LPS-induced neuroinflammation mouse model, cytokine ELISA; details: 10 mg/kg orally once daily for 4 days, LPS 10 mg/kg i.p., samples 8 h after LPS
[3] = tested on: PDE4As, PDE4Bs and PDE4Ds; details: against PDE4As; cited from earlier work
PDE4Cs = details: against PDE4Cs; cited from earlier work
PDE4B = details: quoted in discussion without reference, cf. b4; read-out: PDE4B inhibitory concentration; cited from earlier work
[4] = mice and rats; cited from earlier work
memory = details: rodents; cited from earlier work
APP/PS1 mouse model = details: 0.1, 0.2, and 0.4 mg/kg intragastrically for 3 weeks, APP/PS1 mice; cited from earlier work
[5] = tested on: TNF-α, IL-1β, and IL-6 levels and apoptotic neurons in the brain; details: 3 mg/kg subcutaneous, following subarachnoid hemorrhage; cited from earlier work
[6] = C57BL/6J, mouse, brain, po, 10 mg/kg, 4 h after oral 10 mg/kg, read-out: Concentration, Brain
[7] = C57BL/6J, mouse, brain, po, 10 mg/kg, 4 h after oral 10 mg/kg, read-out: Unbound brain concentration
[8] = C57BL/6J, mouse, brain, po, 10 mg/kg, oral 10 mg/kg, converted from ng/g, read-out: Unbound brain concentration
[9] = C57BL/6J, mouse, plasma, po, 10 mg/kg, 4 h after oral 10 mg/kg, read-out: Concentration, Plasma
[10] = C57BL/6J, mouse, plasma, po, 10 mg/kg, 4 h after oral 10 mg/kg, read-out: Unbound plasma concentration

SMILES	Nontoxic concentrations (BV-2 cells) [µM]	Brain Kp,uu ([1]; 4 h after oral 10 mg/kg, 10 mg/kg)	Kp at 4 h ([1]; C57BL/6J, mouse, brain and plasma, 4 h after oral 10 mg/kg)	Kp uu at 4 h ([1]; C57BL/6J, mouse, brain and plasma, po, 10 mg/kg, 4 h after oral 10 mg/kg)	concentration at 4 h [1, 6] [ng/g]	concentration at 4 h [1, 7] [ng/g]	concentration at 4 h [1, 8] [nM]	concentration at 4 h [1, 9] [ng/mL]	concentration at 4 h [1, 10] [ng/mL]	IC50 (PDE4D7) [nM]	IC50 (PDE4D3) [nM]	Effect on brain cAMP levels (brain cAMP levels)	Effect on TNF-α, IL-1β, and IL-6 levels in plasma and brain [2]	IC50 [3] [nM]	IC50 (PDE4Cs) [nM]	IC50 (PDE4B) [nM]	Calculated oral emetic dosages [4] [mg/kg]	Effect on memory in object-location task and spatial Y-maze (memory)	Performance in Morris water maze, novel object recognition, and passive avoidance tasks (APP/PS1 mouse model)	TNF-α, IL-1β, and IL-6 levels and number of apoptotic neurons in the brain [5]
O=C(O)Cc1ccc(Cc2cc(-c3cccc(Cl)c3)nc(C(F)(F)F)c2)cc1 [zatolmilast]	[…]	0.18	0.33	< 0.18	1200 ± 345	1.7	4.2	3630 ± 890	9.57	[…]	7.4	increases brain cAMP levels	did not reduce	–	–	–	–	–	–	–
O=C(Nc1c(Cl)cncc1Cl)c1ccc(OC(F)F)c(OCC2CC2)c1 [roflumilast]	–	–	–	–	18.2 ± 12.9	0.07	0.17	30.6 ± 14.2	0.39	–	–	–	reduced	[…]	[…]	[…]	[…]	enhanced memory	restored performance	decreased
